# Activity calls are given as the source filed them. The rule behind the calls is not given here.
# Key:
# [1] = Solubility in ethanol-PS80 citrate buffer at pH 3.5 by HPLC analysis; format: physicochemical
# [2] = Inhibition of chymotrypsin-like activity of 20S proteasome in human MOLT4 cells after 1 hr by […]; format: cell-based; conditions: MOLT-4, 1 h
# [3] = Cytotoxicity against human MESSA cells assessed as cell viability after 72 hrs by CellTiter-Glo luminescent assay; format: functional, cell-based; conditions: MES-SA
# [4] = system: Mus musculus; assay: Inhibition of chymotrypsin-like activity of 20S proteasome in BALB/c mouse adrenal gland 40 mg/kg, po after 1 hr; format: functional; set-up: scale not given: the % may be the effect or the level left
# [5] = Cytotoxicity against multidrug resistance transporter expressing doxorubicin resistant human MESSA cells assessed as cell viability after 72 hrs by CellTiter-Glo luminescent assay; format: functional, cell-based; conditions: MES-SA
# [6] = Inhibition of chymotrypsin-like activity of human 20S proteasome by spectrofluorimetry
# [7] = Metabolic stability in human liver microsomes assessed as extraction ratio at 1 uM; format: ADME, Microsome
# [8] = system: Mus musculus; assay: Inhibition of chymotrypsin-like activity of 20S proteasome in BALB/c mouse adrenal gland at 20 mg/kg, po after 1 hr; format: functional; set-up: scale not given: the % may be the effect or the level left
# [9] = Chemical stability in simulated intestinal fluid assessed as compound remaining at 4 uM after 15 mins; format: physicochemical; conditions: read-out: Stability
# [10] = Metabolic stability in mouse liver microsomes assessed as extraction ratio at 1 uM; format: ADME, Microsome
# [11] = system: Mus musculus; assay: Inhibition of chymotrypsin-like activity of 20S proteasome in BALB/c mouse adrenal gland at 10 mg/kg, po after 1 hr; format: functional; set-up: scale not given: the % may be the effect or the level left
# [12] = target: T1, Proteasome subunit beta type-8 (Homo sapiens, UniProt P28062)
# T1 sequence (P28062 whole entry): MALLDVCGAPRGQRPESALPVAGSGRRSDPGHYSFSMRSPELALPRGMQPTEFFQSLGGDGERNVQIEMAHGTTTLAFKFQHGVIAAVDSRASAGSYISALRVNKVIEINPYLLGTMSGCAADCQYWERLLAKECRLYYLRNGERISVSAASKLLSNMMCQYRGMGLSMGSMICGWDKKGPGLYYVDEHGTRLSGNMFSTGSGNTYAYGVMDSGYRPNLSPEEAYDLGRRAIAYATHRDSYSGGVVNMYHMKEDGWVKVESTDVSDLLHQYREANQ
# Description: Inhibition of chymotrypsin-like activity of LMP7 immunoproteasome by proteasome active site ELISA
# [13] = Inhibition of chymotrypsin-like activity of human 20S proteasome beta 5 subunit by proteasome active site ELISA
# [14] = organism: Homo sapiens; assay: Ratio of Kinact to Ki for chymotrypsin-like activity of human 26S proteasome by spectrophotometry; set-up: unit not given here
# [15] = Chemical stability in simulated gastric fluid assessed as compound remaining at 4 uM after 15 mins; format: physicochemical; conditions: read-out: Stability
# [16] = system: Mus musculus; assay: Inhibition of chymotrypsin-like activity of 20S proteasome in BALB/c mouse liver at 40 mg/kg, po after 1 hr; format: functional; set-up: scale not given: the % may be the effect or the level left
# [17] = system: Mus musculus; assay: Inhibition of chymotrypsin-like activity of 20S proteasome in BALB/c mouse blood at 40 mg/kg, po after 1 hr; format: functional; set-up: scale not given: the % may be the effect or the level left
# [18] = Toxicity in iv dosed BALB/c mouse xenografted with mouse CT26 cells assessed as maximum tolerated dose; format: organism-based; conditions: in vivo
# [19] = organism: Homo sapiens; assay: Selectivity for chymotrypsin-like activity over caspase-like activity of human 20S proteasome
# [20] = organism: Homo sapiens; assay: Selectivity for chymotrypsin-like activity over trypsin-like activity of human 20S proteasome
# [21] = system: CT26; assay: Antitumor activity against mouse CT26 cells xenografted in BALB/c mouse assessed as time to achieve significant decrease in tumor volume at 5 mg/kg, iv administered on day 3 post tumor challenge for weekly qdx2 schedule; format: functional
# [22] = system: RL; assay: Antitumor activity against human RL cells xenografted BNX mouse assessed as time to achieve significant decrease in tumor volume at 5 mg/kg, iv administered as weekly qdx2 schedule; format: functional
# [23] = system: RL; assay: Antitumor activity against human RL cells xenografted in BNX mouse assessed as time to achieve significant decrease in tumor volume at 20 mg/kg, po administered as weekly qdx2 schedule; format: functional, organism-based; set-up: dose 20 mg/kg
# [24] = system: CT26; assay: Antitumor activity against mouse CT26 cells xenografted in BALB/c mouse assessed as time to achieve significant decrease in tumor volume at 20 mg/kg, po administered 3 days post tumor challenge in weekly qdx2 schedule; format: functional, organism-based; set-up: dose 20 mg/kg
# [25] = Toxicity in po dosed BALB/c mouse xenografted with mouse CT26 cells assessed as maximum tolerated dose; format: organism-based; conditions: in vivo
# [26] = Toxicity in po dosed BNX mouse xenografted with human RL cells assessed as maximum tolerated dose; format: organism-based; conditions: in vivo
SMILES,solubility [1] [µg/mL],IC50 [2] [nM],IC50 [3] [nM],Activity [4] [%],IC50 [5] [nM],IC50 [6] [nM],hepatic extraction ratio at 1 µM [7] [dimensionless ratio],"remaining at 0.25 h, 4 µM [9] [%]",hepatic extraction ratio at 1 µM [10] [dimensionless ratio],Activity [11] [%],IC50 [12] [nM],IC50 [13] [nM],further results
CC(C)C[C@H](NC(=O)c1cc(Cn2cncn2)on1)C(=O)N[C@@H](Cc1ccccc1)C(=O)N[C@@H](CC(C)C)C(=O)[C@@]1(C)CO1,≥ 1000,62,35,105,> 1000,13,–,–,–,–,–,–,–
COC[C@H](NC(=O)c1cc(C)on1)C(=O)N[C@@H](C)C(=O)N[C@@H](CC(C)C)C(=O)[C@@]1(C)CO1,1240,57,28,–,276,19,0.28,100,0.48,–,–,–,Activity [8]: 8%
CCOc1cc(C(=O)N[C@@H](COC)C(=O)N[C@@H](COC)C(=O)N[C@@H](CC(C)C)C(=O)[C@@]2(C)CO2)no1,–,35,5.4,–,66,3.1,0.69,70,0.69,4,41,9.3,–
COC[C@H](NC(=O)c1cc(OC)no1)C(=O)N[C@@H](COC)C(=O)N[C@@H](Cc1ccccc1)C(=O)[C@@]1(C)CO1,–,10,12,–,269,50,0.64,100,0.54,19,36,14,–
COC[C@H](NC(=O)c1cc(C)on1)C(=O)N[C@@H](COC)C(=O)N[C@@H](CC(C)C)C(=O)[C@@]1(C)CO1,5880,48,22,–,145,11,0.54,70,0.67,21,238,17,Activity [8]: 9%; Ratio [14]: 31800
CC(C)C[C@H](NC(=O)c1cc(Cn2ccnc2)on1)C(=O)N[C@@H](Cc1ccccc1)C(=O)N[C@@H](CC(C)C)C(=O)[C@@]1(C)CO1,≥ 1000,59,52,110,> 1000,15,–,–,–,–,–,–,–
CC(C)C[C@H](NC(=O)c1cc(CN2CCOCC2)on1)C(=O)N[C@@H](Cc1ccccc1)C(=O)N[C@@H](CC(C)C)C(=O)[C@@]1(C)CO1,1480,11,22,29,70,4.1,–,60,–,–,–,–,Ratio [14]: 28300
COC[C@H](NC(=O)c1cc(OC)no1)C(=O)N[C@@H](COC)C(=O)N[C@@H](CC(C)C)C(=O)[C@@]1(C)CO1,–,32,12,–,82,11,0.4,35,0.37,21,22,23,–
CC(C)C[C@H](NC(=O)CN1CCOCC1)C(=O)N[C@@H](Cc1ccccc1)C(=O)N[C@@H](CC(C)C)C(=O)[C@@]1(C)CO1,–,45,35,82,308,57,–,45,–,–,–,–,"remaining at 0.25 h, 4 µM [15]: 90%; Activity [16]: 22%; Ratio [14]: 7900; Activity [17]: 37%; hepatic extraction ratio at 1 µM ([10]; read-out: ERH): 0.95"
Cc1cc(C(=O)N[C@@H](CC(C)C)C(=O)N[C@@H](Cc2ccccc2)C(=O)N[C@@H](CC(C)C)C(=O)[C@@]2(C)CO2)no1,60,17,28,–,47,1.8,–,60,–,–,–,–,Ratio [14]: 50900
COC[C@H](NC(=O)c1cc(C)on1)C(=O)N[C@@H](COC)C(=O)N[C@@H](Cc1ccccc1)C(=O)[C@@]1(C)CO1,–,35,17,–,155,24,0.59,90,0.59,43,21,11,–
CC(C)C[C@H](NC(=O)c1cc(CN2CCN(C)CC2)on1)C(=O)N[C@@H](Cc1ccccc1)C(=O)N[C@@H](CC(C)C)C(=O)[C@@]1(C)CO1,≥ 1000,124,189,101,> 1000,94,–,40,–,–,–,–,–
CC(C)C[C@H](NC(=O)[C@H](CCc1ccccc1)NC(=O)CN1CCOCC1)C(=O)N[C@@H](Cc1ccccc1)C(=O)N[C@@H](CC(C)C)C(=O)[C@@]1(C)CO1 [CARFILZOMIB],–,5.1,18,83,413,5.7,–,< 5,–,–,–,5.2,"remaining at 0.25 h, 4 µM [15]: 15%; Activity [16]: 109%; MTD [18]: 5 mg/kg; fold change (FC) [19]: > 100; fold change (FC) [20]: > 100; Activity [21]: 26 days; Activity [17]: 77%; Activity [22]: 35 days"
Cc1cc(C(=O)N[C@@H](Cc2cscn2)C(=O)N[C@@H](Cc2ccccc2)C(=O)N[C@@H](CC(C)C)C(=O)[C@@]2(C)CO2)no1,–,56,15,–,77,6.7,–,20,–,63,–,–,–
CCOc1cc(C(=O)N[C@@H](COC)C(=O)N[C@@H](COC)C(=O)N[C@@H](Cc2ccccc2)C(=O)[C@@]2(C)CO2)no1,–,3,4.3,–,54,1.4,0.77,85,0.77,3,5,3.7,Activity [23]: inactive; Activity [24]: inactive; MTD [25]: 20 mg/kg; MTD [26]: 20 mg/kg
COC[C@H](NC(=O)c1cc(C)on1)C(=O)N[C@@H](Cc1ccccc1)C(=O)N[C@@H](CC(C)C)C(=O)[C@@]1(C)CO1,750,36,40,9,75,9.3,0.91,90,0.96,–,–,–,Activity [8]: 33%; Ratio [14]: 58600
COC[C@H](NC(=O)c1ccon1)C(=O)N[C@@H](COC)C(=O)N[C@@H](CC(C)C)C(=O)[C@@]1(C)CO1,–,168,37,–,260,43,0.16,90,0.39,14,607,48,–
COC[C@H](NC(=O)c1ccon1)C(=O)N[C@@H](COC)C(=O)N[C@@H](Cc1ccccc1)C(=O)[C@@]1(C)CO1,–,47,43,–,756,73,0.42,85,0.49,34,93,44,–
